Experimental data published in patent US20170121402A1, “ORAL COMPOSITION OF ANTI-TNF ALPHA ANTIBODIES” (Laboratoire Français du Fractionnement et des …, priority 2014, published 2017).

Tested on: interleukin-8 (IL-8) secretion by Caco-2 cells
Test: Anti-inflammatory effect on the Caco-2 line: IL-8 secretion after IL-1 beta activation, ELISA
Format: cell-based, human
Details: differentiated Caco-2 cells (14 days), 24 h preculture with test agent, then 1 ng/ml IL-1 beta for 12 hours
Text: Caco-2 cells, a colon cancer cell line, are an established cell model of the human intestinal epithelium (Pinto et al., 1983, Biol. Cell, 47, 323-330). These cells secrete interleukin-8 (IL-8), which is one of the major interleukins in the pathogenesis of inflammatory bowel diseases, after activation by interleukin-1 beta (IL-1 beta).
The inventors used the Caco-2 cell line as a model of epithelial cells, and evaluated the effect of compositions according to the invention on interleukin-8 (IL-8) secretion by these cells after activation by interleukin-1 beta (IL-1 beta).
To that end, Caco-2 cells, deposited in 24well plates, were cultured for 14 days until the cells were confluent and in a stable differentiation state. On day 14, the cells were precultured in the presence of caprylic acid, transgenically-produced anti-TNF antibody (adalimumab), and a combination of the two. Twenty-four hours later, the cells were stimulated with 1 ng/ml IL-1 beta for 12 hours. IL-8 levels present in the culture supernatants were measured by ELISA.

Substance: adalimumab [anti-TNF antibody]
- IL-8 levels present in the culture supernatants (IL-8 secretion): induces a decrease in IL-8 levels
